According to paper PMC6115343 (The Korean Journal of Physiology & Pharmacology : …, 2018):

Target: Transient receptor potential vanilloid 1 (TRPV1) (Mus musculus, UniProt Q704Y3)
Assay: whole-cell patch clamp of native TRPV1 currents in cultured mouse DRG neurons
Format: cell-based

Chain of Transient receptor potential vanilloid 1 (TRPV1) (Q704Y3 whole entry): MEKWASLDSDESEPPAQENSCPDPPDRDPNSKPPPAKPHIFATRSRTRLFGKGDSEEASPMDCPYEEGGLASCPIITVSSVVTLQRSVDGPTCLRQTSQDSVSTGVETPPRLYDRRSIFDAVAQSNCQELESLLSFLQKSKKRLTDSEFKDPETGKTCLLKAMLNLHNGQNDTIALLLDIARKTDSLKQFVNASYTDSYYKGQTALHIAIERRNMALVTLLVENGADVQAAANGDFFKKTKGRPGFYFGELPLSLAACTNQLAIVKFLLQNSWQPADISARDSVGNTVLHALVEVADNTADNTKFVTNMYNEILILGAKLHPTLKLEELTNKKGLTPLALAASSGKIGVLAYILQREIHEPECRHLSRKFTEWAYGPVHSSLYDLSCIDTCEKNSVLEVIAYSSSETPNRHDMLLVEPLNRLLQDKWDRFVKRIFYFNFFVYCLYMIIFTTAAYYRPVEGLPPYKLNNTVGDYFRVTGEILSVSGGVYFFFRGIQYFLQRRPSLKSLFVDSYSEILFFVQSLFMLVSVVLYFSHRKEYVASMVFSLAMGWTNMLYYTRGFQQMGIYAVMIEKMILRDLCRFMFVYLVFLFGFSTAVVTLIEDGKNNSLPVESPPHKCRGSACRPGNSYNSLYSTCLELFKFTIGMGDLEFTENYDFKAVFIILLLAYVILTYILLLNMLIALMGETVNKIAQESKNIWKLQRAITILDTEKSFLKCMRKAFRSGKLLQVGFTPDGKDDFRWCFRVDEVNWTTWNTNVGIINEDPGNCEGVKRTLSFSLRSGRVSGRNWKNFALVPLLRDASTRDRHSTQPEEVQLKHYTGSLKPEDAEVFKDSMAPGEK

COc1cc(/C=C/C(=O)CC(=O)/C=C/c2ccc(O)c(OC)c2)ccc1O [curcumin]
IC50: 0.523 µM
